Assay results reported in BindingDB's records for doi:10.1016/j.bmcl.2009.06.027 (Grupo Uriach, 2009).
pIC50: −log10 of the molar value.

Assays:
[1] = Inhibition of CXCL8-induced chemotaxis in human polymorphonuclear leukocyte pretreated for 15 mins measured after 4 hrs by cell migration assay
[2] = Inhibition of wild type CXCR1 transfected in mouse L1.2 cells assessed as inhibition of CXCL8-induced cell migration pretreated for 15 mins measured after 4 hrs

| SMILES | pIC50 [1] | pIC50 [2] |
| --- | --- | --- |
| Cc1ccccc1Nc1ccccc1CC(=O)O [2-(2-(o-tolylamino)phenyl)acetic acid] | < 6.00 |  |
| COc1ccc2c(c1)c(CC(=O)O)c(C)n2C(=O)c1ccc(Cl)cc1 [indometacin] | 7.30 |  |
| CC(C(=O)NCCC[N+](C)(C)C)c1ccccc1Nc1c(Cl)cccc1Cl (stereo unspecified) [3-(2-(2-(2,6-dichlorophenylamino)phenyl)propanamido)-N,N,N-trimethylpropan-1-aminium iodide] | < 6.00 |  |
| Cc1ccc(Cl)c(Nc2ccccc2CC(=O)O)c1Cl [2-(2-(2,6-dichloro-3-methylphenylamino)phenyl)acetic acid] | 6.30 |  |
| CC(C(=O)NCCO)c1ccccc1Nc1c(Cl)cccc1Cl (stereo unspecified) [2-{2-[(2,6-Dichlorophenyl)amino]phenyl}-N-(2-hydroxyethyl)propanamide] | 7.70 |  |
| CC(C(=O)NCCCN(C)C)c1ccccc1Nc1c(Cl)cccc1Cl (stereo unspecified) [2-{2-[(2,6-Dichlorophenyl)amino]phenyl}-N,N'-[3,3-(dimethylamino)propyl]propanamide] | 7.60 |  |
| CC(C)Cc1ccc(CC(=O)O)cc1 [Ibufenac] | < 6.00 |  |
| O=C(O)Cc1ccccc1Oc1ccccc1 [(2-Phenoxy-phenyl)-acetic acid] | < 6.00 |  |
| O=C(O)Cc1ccccc1Nc1ccccc1 [(2-Phenylamino-phenyl)-acetic acid] | < 6.00 |  |
| O=C(O)Cc1ccccc1Nc1cc(Cl)ccc1Cl [[2-(2,5-Dichloro-phenylamino)-phenyl]-acetic acid] | 7.60 |  |
| CS(=O)(=O)NC(=O)Cc1ccccc1Oc1ccccc1F [2-[2-(2-Fluorophenoxy)phenyl]-N-(methylsulfonyl)acetamide] | 7.30 |  |
| O=C(O)Cc1ccccc1Nc1c(Cl)cccc1Cl [{2-[(2,6-dichlorophenyl)amino]phenyl}acetic acid] | 8.10 | 7.92 |
| CC(C(=O)O)c1ccccc1Nc1c(Cl)cccc1Cl (stereo unspecified) [2-{2-[(2,6-Dichlorophenyl)amino]phenyl}propanoic acid] | 8.00 |  |
| Cc1cccc(C)c1NC(=O)C(C)c1ccccc1Nc1c(Cl)cccc1Cl (stereo unspecified) [2-{2-[(2,6-Dichlorophenyl)amino]phenyl}-N-(2,6-dimethylphenyl)propanamide] | 6.22 |  |
| O=C(O)Cc1ccccc1Oc1ccccc1Cl [[2-(2-Chloro-phenoxy)-phenyl]-acetic acid] | 6.30 |  |
| CC(C(=O)NS(C)(=O)=O)c1ccccc1Nc1c(Cl)cccc1Cl (stereo unspecified) [2-{2-[(2,6-Dichlorophenyl)amino]phenyl}-N-(methylsulfonyl)propanamide] | 7.89 |  |
| O=C(O)Cc1ccccc1Nc1ccccc1Cl [[2-(2-Chloro-phenylamino)-phenyl]-acetic acid] | 6.40 |  |
| O=C(O)Cc1ccccc1Nc1ccccc1F [2-(2-(2-fluorophenylamino)phenyl)acetic acid] | 8.05 |  |
| O=C(O)Cc1cccc(C(=O)c2ccccc2)c1 [2-(3-benzoylphenyl)acetic acid] | < 6.00 |  |
| Cc1ccc(C(=O)c2ccc(CC(=O)O)n2C)cc1 [2-(1-methyl-5-(4-methylbenzoyl)-1H-pyrrol-2-yl)acetic acid] | 7.05 |  |
| O=C(O)Cc1ccccc1Nc1c(F)cccc1F [2-(2-(2,6-difluorophenylamino)phenyl)acetic acid] | < 6.00 |  |
| O=C(O)Cc1ccccc1Oc1ccccc1F [2-(2-(2-fluorophenoxy)phenyl)acetic acid] | 7.89 |  |
| CC(C(N)=O)c1ccccc1Nc1c(Cl)cccc1Cl (stereo unspecified) [2-{2-[(2,6-Dichlorophenyl)amino]phenyl}propanamide] | 7.92 |  |
| O=C(O)Cc1ccccc1Cc1c(Cl)cccc1Cl [2-(2-(2,6-dichlorobenzyl)phenyl)acetic acid] | < 6.00 |  |
| CC(C(=O)NC(C)(C)C)c1ccccc1Nc1c(Cl)cccc1Cl (stereo unspecified) [N-(tert-Butyl)-2-{2-[(2,6-dichlorophenyl)amino]phenyl}propanamide] | 6.19 |  |
